Experimental data reported in ChEMBL document CHEMBL1128114, “Enzymatic resolution and pharmacological activity of the enantiomers of 3,5-dihydroxyphenylglycine, a metabotropic glutamate receptor agonist” (Bioorg Med Chem Lett, 1995).

Molecular target: Metabotropic glutamate receptor
Test: Compound was tested for ability to stimulate metabotropic glutamate receptor (mGluR) mediated phosphoinositide hydrolysis in rat hippocampus
Assay type: functional, tissue-based

SMILES: N[C@H](C(=O)O)c1cc(O)cc(O)c1
- EC50: 10.9 µM

SMILES: N[C@@H](C(=O)O)c1cc(O)cc(O)c1
- EC50: 106 µM
